Test results: US20260085253A1, “LILY OF THE VALLEY ODORANT” (Firmenich SA, priority 2022, published 2026)

What was measured:
[1] = system: Aedes aegypti; experiment: Warm Body assay: repellent efficacy on mosquitoes; format: in vivo; settings: 100 μL on warm body
Procedure: a) Warm Body Assay: Small-Scale Test Used to Screen the Repellent Efficacy on Mosquitoes at Different Concentrations. […] Anopheles gambiae is also a model organism as it is anthropophilic and transmits malaria. The controlling effect according to the present invention was assessed using an adapted Warm Body assay as defined in Kröber T, Kessler S, FreiJ, Bourquin M, Guerin P M. 2010. J Am Mosq Control Assoc. 26:381-386. In this in-vitro assay the number of mosquito landing on a warm body, simulating an attractive host treated with the tested stimuli, was measured in order to assess the repellence effect. The published protocol has been adapted as the switch from Anopheles gambiae to Aedes aegypti led to a decrease of mosquitoes placed in the tested cage due to the size difference (i.e. 30 mosquitoes instead of 50) and to an increase of lighting since Ae. aegypti is a diurnal mosquitoes (i.e. 150 lux instead of 4 lux). On the sandblasted glass Petri dish covering the warm body (28.3 cm^2), 100 μL of the compounds diluted at 5-8 concentrations in ethanol was applied. The number of mosquito landing on the warm body was counted for each stimulus and pure ethanol (solvent) as control. The stimuli tested were stim A (3-(4-isopropyl-2-methylphenyl)propanal at 96%) and stim B (a composition of matter comprising 3-(4-isopropyl-2-methylphenyl)propanal, 3-(2-isopropyl-4-methylphenyl)propanal and 3-(2-methyl-5-propan-2-ylphenyl)propanal at 88%, 5% and 2%, respectively) diluted in ethanol. Five to eight concentrations were assessed on each stimulus, missing data points mentioned as n.d. The mean number of mosquito landings with the solvent only (0 mg/mL) is equal to 64.5±10.1 landings in two minutes.

[2] = system: Ixodes ricinus; experiment: Warm Plate assay: repellent efficacy on ticks; format: in vivo; settings: for Percentage of repellence of ticks Ixodes ricinus on the warm plate: n = 12, last stage nymphs
Procedure: b) Warm Plate Assay: Small-Scale Test Used to Screen the Repellent Efficacy on Ticks at Different Concentrations.
Repellent efficacy of the different compounds was assessed against the sheep tick, Ixodes ricinus L that can transmit both bacterial and viral pathogens. I. ricinus is one of the recommended model organisms mentioned by the Guidance on the European […] [Vol IL, Efficacy—Assessment & Evaluation (Parts B+C), v6.0, Août 2023]. Observations of repellent efficacy were made on last stage nymphs.
The repellent efficacy was assessed using the protocol of the in-vitro Warm Plate Assay as defined in Kröber T, Bourquin M, Guerin P M. 2013. Pestic. Biochem. Phys. 107(2):160-168.
Ticks had the choice of crossing a zone with 3-(4-isopropyl-2-methylphenyl)propanal (96%) applied or to stay on their refuge without any compound applied. To motivate ticks' movement, the warm plate was heated at 33° C. (to mimic vertebrate skin temperature) and hold in a favourable environment (23° C., 85% RH).
The stimulus tested was stim A (3-(4-isopropyl-2-methylphenyl)propanal at 96%) diluted in ethanol. Twelve different ticks were tested for each of the four concentrations.

**Q.** What does the source list for `Cc1cc(C(C)C)ccc1CCC=O` [Stim A, 3-(4-isopropyl-2-methylphenyl)propanal]?
**A.** Percentage of repellence of mosquitoes Aedes aegypti landing on the warm body ([1]; 0.0032 mg/mL in ethanol): 20%; Percentage of repellence of mosquitoes Aedes aegypti landing on the warm body ([1]; 0.016 mg/mL in ethanol): 41%; Percentage of repellence of mosquitoes Aedes aegypti landing on the warm body ([1]; 0.08 mg/mL in ethanol): 40%; Percentage of repellence of mosquitoes Aedes aegypti landing on the warm body ([1]; 0.4 mg/mL in ethanol): 63%; Percentage of repellence of mosquitoes Aedes aegypti landing on the warm body ([1]; 2 mg/mL in ethanol): 71%; Percentage of repellence of mosquitoes Aedes aegypti landing on the warm body ([1]; 10 mg/mL in ethanol): 90%; Percentage of repellence of ticks Ixodes ricinus on the warm plate ([2]; 0.4 mg/mL in ethanol): 25.0%; Percentage of repellence of ticks Ixodes ricinus on the warm plate ([2]; 2 mg/mL in ethanol): 100.0%; Percentage of repellence of ticks Ixodes ricinus on the warm plate ([2]; 10 mg/mL in ethanol): 100.0%; repellence of ticks Ixodes ricinus on the warm plate (in words) ([2]; as soon as 0.02% applied on the warm plate): All ticks were repelled
